Test results: publication PMC12198282, “Application of a high-density microelectrode array assay using a 3D human iPSC-derived brain microphysiological system model for in vitro neurotoxicity screening of environmental compounds” (Archives of Toxicology, 2025)
Where two headings read alike, the source gives them in different places.

Columns and labels:
[1] = system: 2D rat cortical cultures; conditions: rNFA mc5 hit call; cytotoxicity AlamarBlue; cited from earlier work; as to hitc CCTE Shafer MEA dev active electrodes number: key: 1 (active); 0 (inactive); as to hitc CCTE Shafer MEA dev burst duration mean: key: 1 (active); 0 (inactive); as to hitc CCTE Shafer MEA dev burst rate: key: 1 (active); 0 (inactive); as to hitc CCTE Shafer MEA dev bursting electrodes number: key: 1 (active); 0 (inactive); as to hitc CCTE Shafer MEA dev correlation coefficient mean: key: 1 (active); 0 (inactive); as to hitc CCTE Shafer MEA dev firing rate mean: key: 1 (active); 0 (inactive); as to hitc CCTE Shafer MEA dev inter network spike interval mean: key: 1 (active); 0 (inactive); as to hitc CCTE Shafer MEA dev interburst interval mean: key: 1 (active); 0 (inactive); as to hitc CCTE Shafer MEA dev mutual information norm: key: 1 (active); 0 (inactive); as to hitc CCTE Shafer MEA dev network spike duration std: key: 1 (active); 0 (inactive); as to hitc CCTE Shafer MEA dev network spike number: key: 1 (active); 0 (inactive); as to hitc CCTE Shafer MEA dev network spike peak: key: 1 (active); 0 (inactive); as to hitc CCTE Shafer MEA dev per burst interspike interval: key: 1 (active); 0 (inactive); as to hitc CCTE Shafer MEA dev per burst spike percent: key: 1 (active); 0 (inactive); as to hitc CCTE Shafer MEA dev per network spike spike number mean: key: 1 (active); 0 (inactive); as to hitc CCTE Shafer MEA dev per network spike spike percent: key: 1 (active); 0 (inactive)
[2] = system: 2D rat cortical cultures; conditions: cytotoxicity LDH, cited from earlier work; as to hitc CCTE Shafer MEA dev active electrodes number: key: 1 (active); 0 (inactive); as to hitc CCTE Shafer MEA dev burst duration mean: key: 1 (active); 0 (inactive); as to hitc CCTE Shafer MEA dev burst rate: key: 1 (active); 0 (inactive); as to hitc CCTE Shafer MEA dev bursting electrodes number: key: 1 (active); 0 (inactive); as to hitc CCTE Shafer MEA dev correlation coefficient mean: key: 1 (active); 0 (inactive); as to hitc CCTE Shafer MEA dev firing rate mean: key: 1 (active); 0 (inactive); as to hitc CCTE Shafer MEA dev inter network spike interval mean: key: 1 (active); 0 (inactive); as to hitc CCTE Shafer MEA dev interburst interval mean: key: 1 (active); 0 (inactive); as to hitc CCTE Shafer MEA dev mutual information norm: key: 1 (active); 0 (inactive); as to hitc CCTE Shafer MEA dev network spike duration std: key: 1 (active); 0 (inactive); as to hitc CCTE Shafer MEA dev network spike number: key: 1 (active); 0 (inactive); as to hitc CCTE Shafer MEA dev network spike peak: key: 1 (active); 0 (inactive); as to hitc CCTE Shafer MEA dev per burst interspike interval: key: 1 (active); 0 (inactive); as to hitc CCTE Shafer MEA dev per burst spike percent: key: 1 (active); 0 (inactive); as to hitc CCTE Shafer MEA dev per network spike spike number mean: key: 1 (active); 0 (inactive)
[3] = system: 2D rat cortical cultures; conditions: cited from earlier work; for AC50: rNFA mc5; as to hitc CCTE Shafer MEA dev active electrodes number: key: 1 (active); 0 (inactive); as to hitc CCTE Shafer MEA dev burst duration mean: key: 1 (active); 0 (inactive); as to hitc CCTE Shafer MEA dev burst rate: key: 1 (active); 0 (inactive); as to hitc CCTE Shafer MEA dev bursting electrodes number: key: 1 (active); 0 (inactive); as to hitc CCTE Shafer MEA dev correlation coefficient mean: key: 1 (active); 0 (inactive); as to hitc CCTE Shafer MEA dev firing rate mean: key: 1 (active); 0 (inactive); as to hitc CCTE Shafer MEA dev inter network spike interval mean: key: 1 (active); 0 (inactive); as to hitc CCTE Shafer MEA dev interburst interval mean: key: 1 (active); 0 (inactive); as to hitc CCTE Shafer MEA dev mutual information norm: key: 1 (active); 0 (inactive); as to hitc CCTE Shafer MEA dev network spike duration std: key: 1 (active); 0 (inactive); as to hitc CCTE Shafer MEA dev network spike number: key: 1 (active); 0 (inactive); as to hitc CCTE Shafer MEA dev network spike peak: key: 1 (active); 0 (inactive); as to hitc CCTE Shafer MEA dev per burst interspike interval: key: 1 (active); 0 (inactive); as to hitc CCTE Shafer MEA dev per burst spike percent: key: 1 (active); 0 (inactive); as to hitc CCTE Shafer MEA dev per network spike spike number mean: key: 1 (active); 0 (inactive)
[4] = system: human iPSC-derived 3D BrainSpheres; experiment: BrainSphere MEA assay (HD-MEA, 13-day exposure, concentration-response); format: cell-based; conditions: for EC (benchmark response 1.349 SD): 312 h; for AC50: Supplement 3 prints it also for curves with hit call 0
Summary of the method: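 Recordings used a 5× RMS spike threshold and 600 s network scans of fixed electrode regions, each region clustered as one BrainSphere. Spheres had 7 weeks of differentiation and 48 h attachment on coated HD-MEA chips before day 0 of the 13-day concentration-response exposure. At least three independent plates were run.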

[5] = AUC over 13-day exposure, tcplfit2
[6] = tcplfit2 BMD at benchmark response (1.349*SD of baseline controls)
[7] = tcplfit2 output ACC, activity cutoff in Supplemental Table 1

## C/C(=C/C=C/[C@@H](C)C(=O)O)[C@H]1CN[C@H](C(=O)O)[C@H]1CC(=O)O [Domoic acid]
[1]
  hitc CCTE_Shafer_MEA_dev_AB: 0
[2]; rNFA mc5 hit call
  hitc CCTE_Shafer_MEA_dev_LDH: 1
[2]; read-out: ac50 CCTE_Shafer_MEA_dev_LDH, rNFA mc5
  AC50: 6.75 µM
[3]; aenm active_electrodes_number, read-out: ac50 CCTE_Shafer_MEA_dev_active_electrodes_number
  AC50: 0.97 µM
[3]; aenm burst_duration_mean, read-out: ac50 CCTE_Shafer_MEA_dev_burst_duration_mean
  AC50: 0.992 µM
[3]; aenm burst_rate, read-out: ac50 CCTE_Shafer_MEA_dev_burst_rate
  AC50: 0.131 µM
[3]; aenm bursting_electrodes_number, read-out: ac50 CCTE_Shafer_MEA_dev_bursting_electrodes_number
  AC50: 1.28 µM
[3]; aenm correlation_coefficient_mean, read-out: ac50 CCTE_Shafer_MEA_dev_correlation_coefficient_mean
  AC50: 1.56 µM
[3]; aenm firing_rate_mean, read-out: ac50 CCTE_Shafer_MEA_dev_firing_rate_mean
  AC50: 0.068 µM
[3]; aenm inter_network_spike_interval_mean, read-out: ac50 CCTE_Shafer_MEA_dev_inter_network_spike_interval_mean
  AC50: 0.16 µM
[3]; aenm interburst_interval_mean, read-out: ac50 CCTE_Shafer_MEA_dev_interburst_interval_mean
  AC50: 0.032 µM
[3]; aenm mutual_information_norm, read-out: ac50 CCTE_Shafer_MEA_dev_mutual_information_norm
  AC50: 0.051 µM
[3]; aenm network_spike_duration_std, read-out: ac50 CCTE_Shafer_MEA_dev_network_spike_duration_std
  AC50: 0.259 µM
[3]; aenm network_spike_number, read-out: ac50 CCTE_Shafer_MEA_dev_network_spike_number
  AC50: 0.022 µM
[3]; aenm network_spike_peak, read-out: ac50 CCTE_Shafer_MEA_dev_network_spike_peak
  AC50: 1.83 µM
[3]; aenm per_burst_interspike_interval, read-out: ac50 CCTE_Shafer_MEA_dev_per_burst_interspike_interval
  AC50: 1.33 µM
[3]; aenm per_burst_spike_percent, read-out: ac50 CCTE_Shafer_MEA_dev_per_burst_spike_percent
  AC50: 2.06 µM
[3]; aenm per_network_spike_spike_number_mean, read-out: ac50 CCTE_Shafer_MEA_dev_per_network_spike_spike_number_mean
  AC50: 1.05 µM
[3]; aenm per_network_spike_spike_percent, read-out: ac50 CCTE_Shafer_MEA_dev_per_network_spike_spike_percent
  AC50: 2.33 µM
[3]; aenm spike_duration_mean, read-out: ac50 CCTE_Shafer_MEA_dev_spike_duration_mean
  AC50: 1.12 µM
[3]; rNFA mc5 hit call, aenm active_electrodes_number
  hitc CCTE_Shafer_MEA_dev_active_electrodes_number: 1
[3]; rNFA mc5 hit call, aenm burst_duration_mean
  hitc CCTE_Shafer_MEA_dev_burst_duration_mean: 1
[3]; rNFA mc5 hit call, aenm burst_rate
  hitc CCTE_Shafer_MEA_dev_burst_rate: 1
[3]; rNFA mc5 hit call, aenm bursting_electrodes_number
  hitc CCTE_Shafer_MEA_dev_bursting_electrodes_number: 1
[3]; rNFA mc5 hit call, aenm correlation_coefficient_mean
  hitc CCTE_Shafer_MEA_dev_correlation_coefficient_mean: 1
[3]; rNFA mc5 hit call, aenm firing_rate_mean
  hitc CCTE_Shafer_MEA_dev_firing_rate_mean: 1
[3]; rNFA mc5 hit call, aenm inter_network_spike_interval_mean
  hitc CCTE_Shafer_MEA_dev_inter_network_spike_interval_mean: 1
[3]; rNFA mc5 hit call, aenm interburst_interval_mean
  hitc CCTE_Shafer_MEA_dev_interburst_interval_mean: 1
[3]; rNFA mc5 hit call, aenm mutual_information_norm
  hitc CCTE_Shafer_MEA_dev_mutual_information_norm: 1
[3]; rNFA mc5 hit call, aenm network_spike_duration_std
  hitc CCTE_Shafer_MEA_dev_network_spike_duration_std: 1
[3]; rNFA mc5 hit call, aenm network_spike_number
  hitc CCTE_Shafer_MEA_dev_network_spike_number: 1
[3]; rNFA mc5 hit call, aenm network_spike_peak
  hitc CCTE_Shafer_MEA_dev_network_spike_peak: 1
[3]; rNFA mc5 hit call, aenm per_burst_interspike_interval
  hitc CCTE_Shafer_MEA_dev_per_burst_interspike_interval: 1
[3]; rNFA mc5 hit call, aenm per_burst_spike_percent
  hitc CCTE_Shafer_MEA_dev_per_burst_spike_percent: 1
[3]; rNFA mc5 hit call, aenm per_network_spike_spike_number_mean
  hitc CCTE_Shafer_MEA_dev_per_network_spike_spike_number_mean: 1
[3]; rNFA mc5 hit call, aenm per_network_spike_spike_percent
  hitc CCTE_Shafer_MEA_dev_per_network_spike_spike_percent: 1
[3]; rNFA mc5 hit call, aenm spike_duration_mean
  hitc CCTE_Shafer_MEA_dev_spike_duration_mean: 1
[3]; ref Brown et al. [2016], Carstens et al. [2022], Frank et al. [2017b], Shafer et al. [2019], ToxCast invitrodb (v4.2)
  Bioactivity in the rNFA (in words): alter multiple parameters of network formation
[4]; 5th percentile of AC50 values by chemical, above 0.5 = more potent in the rNFA
  Difference of minimum potency between BrainSphere MEA assay and rNFA: more than 0.5 log10 µM
[4]; [5]
  hitc Mean.Spheroid.Burst.Duration: 1
  hitc Mean.Spheroid.Burst.ISI: 1
  hitc Mean.Spheroid.Burst.Peak.Firing.Rate: 1
  hitc Mean.Spheroid.Firing.Rate: 1
  hitc Mean.Spheroid.IBI: 1
  hitc Mean.Spheroid.Nonburst.ISI: 1
  hitc Mean.Spheroid.Spikes.per.Burst: 1
  hitc Mean.Spheroid.Spikes.per.Burst.per.Electrode: 1
  hitc Spheroid.Burst.Frequency: 1
  hitc Spheroid.Spike.Amplitude.90th.Percentile: 0
[4]; Homo sapiens, read-out: BMD Mean.Spheroid.Burst.ISI
  EC (benchmark response 1.349 SD): 2.6 µM
[4]; Homo sapiens, read-out: BMD Mean.Spheroid.Nonburst.ISI
  EC (benchmark response 1.349 SD): 0.99 µM
[4]; Homo sapiens, read-out: Mean potency
  EC50: 3.32 µM
[4]; Homo sapiens, read-out: Minimum potency
  EC50: 1.3 µM
[4]; Homo sapiens, read-out: ac50 Mean.Spheroid.Burst.Duration, concentration at 50% maximal activity
  AC50: 3.6 µM
[4]; Homo sapiens, read-out: ac50 Mean.Spheroid.Burst.ISI, concentration at 50% maximal activity
  AC50: 4.4 µM
[4]; Homo sapiens, read-out: ac50 Mean.Spheroid.Burst.Peak.Firing.Rate, concentration at 50% maximal activity
  AC50: 3.1 µM
[4]; Homo sapiens, read-out: ac50 Mean.Spheroid.Firing.Rate, concentration at 50% maximal activity
  AC50: 5.4 µM
[4]; Homo sapiens, read-out: ac50 Mean.Spheroid.IBI, concentration at 50% maximal activity
  AC50: 3.55 µM
[4]; Homo sapiens, read-out: ac50 Mean.Spheroid.Nonburst.ISI, concentration at 50% maximal activity
  AC50: 1 µM
[4]; Homo sapiens, read-out: ac50 Mean.Spheroid.Spikes.per.Burst, concentration at 50% maximal activity
  AC50: 3 µM
[4]; Homo sapiens, read-out: ac50 Mean.Spheroid.Spikes.per.Burst.per.Electrode, concentration at 50% maximal activity
  AC50: 1.7 µM
[4]; Homo sapiens, read-out: ac50 Spheroid.Burst.Frequency, concentration at 50% maximal activity
  AC50: 4.2 µM
[4]; Homo sapiens, read-out: ac50 Spheroid.Spike.Amplitude.90th.Percentile, concentration at 50% maximal activity
  AC50: 15 µM
[4]; metrics active out of the total number of metrics screened
  Percent active: 90%
[4]; read-out: ac50 Mean.Spheroid.Burst.Duration, concentration at 50% maximal activity, listed as L-Domoic acid
  AC50: 3.58 µM
[4]; read-out: ac50 Mean.Spheroid.Burst.ISI, concentration at 50% maximal activity, listed as L-Domoic acid
  AC50: 4.36 µM
[4]; read-out: ac50 Mean.Spheroid.Burst.Peak.Firing.Rate, concentration at 50% maximal activity, listed as L-Domoic acid
  AC50: 3.1 µM
[4]; read-out: ac50 Mean.Spheroid.Firing.Rate, concentration at 50% maximal activity, listed as L-Domoic acid
  AC50: 5.41 µM
[4]; read-out: ac50 Mean.Spheroid.Nonburst.ISI, concentration at 50% maximal activity, listed as L-Domoic acid
  AC50: 1.02 µM
[4]; read-out: ac50 Mean.Spheroid.Spikes.per.Burst.per.Electrode, concentration at 50% maximal activity, listed as L-Domoic acid
  AC50: 1.71 µM
[4]; read-out: ac50 Mean.Spheroid.Spikes.per.Burst, concentration at 50% maximal activity, listed as L-Domoic acid
  AC50: 2.98 µM
[4]; read-out: ac50 Spheroid.Burst.Frequency, concentration at 50% maximal activity, listed as L-Domoic acid
  AC50: 4.17 µM
[4]; [6]
  BMD Mean.Spheroid.Burst.Duration: 2 µM
  BMD Mean.Spheroid.Burst.Peak.Firing.Rate: 2 µM
  BMD Mean.Spheroid.Firing.Rate: 6.6 µM
  BMD Mean.Spheroid.IBI: 1.9 µM
  BMD Mean.Spheroid.Spikes.per.Burst: 1.3 µM
  BMD Mean.Spheroid.Spikes.per.Burst.per.Electrode: 1.3 µM
  BMD Spheroid.Burst.Frequency: 4.4 µM
  BMD Spheroid.Spike.Amplitude.90th.Percentile: 14 µM
[4]; [7]
  ACC Mean.Spheroid.Burst.Duration: 1.8 µM
  ACC Mean.Spheroid.Burst.ISI: 1.8 µM
  ACC Mean.Spheroid.Burst.Peak.Firing.Rate: 1.8 µM
  ACC Mean.Spheroid.Firing.Rate: 9.9 µM
  ACC Mean.Spheroid.IBI: 3.1 µM
  ACC Mean.Spheroid.Nonburst.ISI: 1 µM
  ACC Mean.Spheroid.Spikes.per.Burst: 2.8 µM
  ACC Mean.Spheroid.Spikes.per.Burst.per.Electrode: 1.5 µM
  ACC Spheroid.Burst.Frequency: 3.8 µM
  ACC Spheroid.Spike.Amplitude.90th.Percentile: 18 µM
